These results are taken from PMC8509669 (2021).

Holding throughout (assay): ThT fluorescence light-up
Assay [1] concerns FenA2-ThT (DNA, aptamer) ACGACGGGCCGAGTAGTCTCCACGATTGATCGGAAGTCGT
Particulars: 10 mM NaCl; 10 mM Tris-HCl pH 7.0, 30 °C; 1 µM aptamer; peak signal at 1:8 sensor:ThT.

Assay [2] deals with FenA1-ThT (DNA, aptamer) ACGACCACAGGGAGTAAGAGGCCGCCAGATTGTAAGTCGT
The settings on record: 10 mM NaCl; 10 mM Tris-HCl pH 7.0, 30 °C; 1 µM aptamer.

Assay [3] concerns FenA3-ThT (DNA, aptamer) CCGCAGGTCAGGTTGAGAGGATCCCGATTGCGG
Particulars: 10 mM NaCl; 10 mM Tris-HCl pH 7.0, 30 °C; 1 µM aptamer.

The subject of assay [4] is FenA4-ThT (DNA, aptamer) ACGACCGCAGGTTGTCTGAGCCGACAGGTTGCATGTCGT
The settings on record: 10 mM NaCl; 10 mM Tris-HCl pH 7.0, 30 °C; 1 µM aptamer.

Assay [5] has as its system FenA5-ThT (DNA, aptamer) ACGACCGCAGGGCGTGAGAGCCGGAACGGTGCATCGTCGT
Particulars: 10 mM NaCl; 10 mM Tris-HCl pH 7.0, 30 °C; 1 µM aptamer.

`Cc1ccc2c(c1)sc(-c1ccc(N(C)C)cc1)[n+]2C`: the binding entry in assay [1] is given as “yes”; in assay [2], “weak”; in assay [3], “weak”; in assay [4], “weak”; in assay [5], “weak”.
